Among the data in ChEMBL document CHEMBL1152265, “The design, synthesis and biological evaluation of 7-alkoxy-4-heteroarylamino-3-cyanoquinolines as dual inhibitors of c-Src and iNOS” (Bioorg Med Chem Lett, 2008) are IC50 and viability values, retold here.

In assay [1] the target is T1, Nitric oxide synthase, inducible (Mus musculus, UniProt P29477).
T1 sequence (P29477 whole entry): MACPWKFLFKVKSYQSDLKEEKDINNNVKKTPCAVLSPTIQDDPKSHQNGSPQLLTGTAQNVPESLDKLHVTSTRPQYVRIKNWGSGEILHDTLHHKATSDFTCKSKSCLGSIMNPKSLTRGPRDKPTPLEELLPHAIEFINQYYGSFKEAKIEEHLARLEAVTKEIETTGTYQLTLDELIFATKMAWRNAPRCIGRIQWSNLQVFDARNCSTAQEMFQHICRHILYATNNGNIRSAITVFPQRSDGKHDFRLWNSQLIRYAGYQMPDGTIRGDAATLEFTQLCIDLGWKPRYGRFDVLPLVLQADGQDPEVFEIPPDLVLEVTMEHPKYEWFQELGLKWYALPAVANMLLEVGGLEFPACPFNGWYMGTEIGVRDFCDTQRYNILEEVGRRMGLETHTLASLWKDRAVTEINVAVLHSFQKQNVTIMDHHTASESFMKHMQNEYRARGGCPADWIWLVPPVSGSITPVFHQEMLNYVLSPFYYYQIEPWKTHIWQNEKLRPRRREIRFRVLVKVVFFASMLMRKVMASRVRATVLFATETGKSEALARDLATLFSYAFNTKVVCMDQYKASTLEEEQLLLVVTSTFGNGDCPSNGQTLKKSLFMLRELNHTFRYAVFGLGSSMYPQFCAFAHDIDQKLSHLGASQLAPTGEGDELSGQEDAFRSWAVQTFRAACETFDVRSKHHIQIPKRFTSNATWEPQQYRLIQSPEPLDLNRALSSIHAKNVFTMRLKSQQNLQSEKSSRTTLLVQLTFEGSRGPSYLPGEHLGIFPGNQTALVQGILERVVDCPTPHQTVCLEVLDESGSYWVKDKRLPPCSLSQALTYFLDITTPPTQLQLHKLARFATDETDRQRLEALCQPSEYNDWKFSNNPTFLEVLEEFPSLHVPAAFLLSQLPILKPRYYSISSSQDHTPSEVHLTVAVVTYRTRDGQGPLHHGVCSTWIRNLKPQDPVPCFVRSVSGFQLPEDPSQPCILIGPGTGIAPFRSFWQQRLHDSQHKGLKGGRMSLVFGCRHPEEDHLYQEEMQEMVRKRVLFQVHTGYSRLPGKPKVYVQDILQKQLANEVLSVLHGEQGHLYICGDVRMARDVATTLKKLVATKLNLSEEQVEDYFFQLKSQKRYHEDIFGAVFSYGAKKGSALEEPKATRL
The assay is described as follows: Inhibition of iNOS in mouse ANA1 cells. The format is cell-based.

Assay [2] addresses Proto-oncogene tyrosine-protein kinase Src (Homo sapiens, UniProt P12931). The assay is described as follows: Inhibition of cSrc.
Another assay relates to A549. Put plainly: Antiproliferative activity against human A549 cells assessed as survival at 10 uM by sulforhodamine B assay. It counts as functional. Particulars: read-out: Activity. (In general: The SRB assay estimates cell density from bound dye.)
Another assay relates to AGS. The assay is described as follows: Antiproliferative activity against human AGS cells assessed as survival at 10 uM by sulforhodamine B assay. It counts as functional. Particulars: read-out: Activity.
Another assay concerns HepG2. The assay is described as follows: Antiproliferative activity against human HepG2 cells assessed as survival at 10 uM by sulforhodamine B assay. The format is functional. Conditions: read-out: Activity.
Another assay deals with HT-29. Put plainly: Antiproliferative activity against human HT-29 cells assessed as survival at 10 uM by sulforhodamine B assay. Particulars: read-out: Activity. It counts as functional.
The test system of another assay is PC-3. Put plainly: Antiproliferative activity against human PC3 cells assessed as survival at 10 uM by sulforhodamine B assay. Particulars: read-out: Activity. The format is functional.

Each structure is given as a SMILES string.

Sequence of Proto-oncogene tyrosine-protein kinase Src (P12931 2-536 limits assumed): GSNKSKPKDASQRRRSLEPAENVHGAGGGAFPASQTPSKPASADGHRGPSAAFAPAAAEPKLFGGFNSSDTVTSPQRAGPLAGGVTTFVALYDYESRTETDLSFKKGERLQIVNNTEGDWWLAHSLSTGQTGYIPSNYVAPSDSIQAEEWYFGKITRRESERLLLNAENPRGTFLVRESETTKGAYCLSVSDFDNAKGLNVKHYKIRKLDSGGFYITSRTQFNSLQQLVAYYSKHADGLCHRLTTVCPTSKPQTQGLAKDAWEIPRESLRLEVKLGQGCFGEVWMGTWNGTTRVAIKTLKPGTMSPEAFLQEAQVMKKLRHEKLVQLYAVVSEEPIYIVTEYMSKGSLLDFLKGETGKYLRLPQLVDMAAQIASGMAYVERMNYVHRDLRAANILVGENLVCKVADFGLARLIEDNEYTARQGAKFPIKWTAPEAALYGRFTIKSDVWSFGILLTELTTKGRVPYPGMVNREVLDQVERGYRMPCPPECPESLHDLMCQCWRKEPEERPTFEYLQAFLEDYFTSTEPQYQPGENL

For orientation: IC50 means the concentration that inhibits the measured activity by half. Read a high IC50 as weaker potency. For `COc1cc2c(Nc3ccc4nc(N)sc4c3)c(C#N)cnc2cc1OCCCN1CCNCC1`, the figures for the IC50 in assay [1] and in assay [2] were 105 µM and 0.0207 µM, respectively.
`Cc1cc2c(Nc3ccc4nc(N)sc4c3)c(C#N)cnc2cc1OCCCN1CC(C)CC(C)C1` (configuration not stated): the viability at 10 µM worked out at 53.6% in the assay on A549; 65.5% in the assay with AGS; 42.2% in the assay with HepG2; 60.6% with HT-29; 63% in the assay on PC-3. Moreover, the IC50 amounted to 10.5 µM in assay [1] and 0.267 µM in assay [2].
In the case of `Cc1cc2c(Nc3ccc4nc(N)[nH]c4c3)c(C#N)cnc2cc1OCCCN1CCCC1`, the IC50 worked out at 24.8 µM in assay [1] and 0.159 µM in assay [2].
On to `CCN(CC)CCCOc1cc2ncc(C#N)c(Nc3ccc4nc(N)sc4c3)c2cc1C`, for which the IC50 in assay [1] worked out at 46.8 µM; in assay [2], 0.042 µM.
On to `Cc1cc2c(Nc3ccc4nc(N)sc4c3)c(C#N)cnc2cc1OCCCN1CCOCC1`, for which the IC50 in assay [1] was 31.8 µM; in assay [2], 0.0811 µM.
As to `Cc1cc2c(Nc3ccc4nc(N)sc4c3)c(C#N)cnc2cc1OCCCN1CCN(C)CC1`, the viability at 10 µM was 64.1% in the assay on A549; 68.1% with AGS; 40.5% in the assay with HepG2; 31.6% in the assay with HT-29; 59.5% in the assay with PC-3. In addition, the IC50 in assay [1] turned out to be 37.1 µM; in assay [2], 0.0506 µM.
Consider `Cc1cc2c(Nc3ccc4nc(N)[nH]c4c3)c(C#N)cnc2cc1OCCCN(C)C`, for which the IC50 in assay [1] stood at 13.2 µM; in assay [2], 0.143 µM.
As for `COc1cc(Nc2c(C#N)cnc3cc(OCCCN4CCN(C)CC4)c(OC)cc23)c(Cl)cc1Cl` [BOSUTINIB], the viability at 10 µM worked out at 9.32% with A549; 3.8% in the assay with AGS; 9.2% with HepG2; 2.84% in the assay with HT-29; 7.81% with PC-3.
For `Cc1cc2c(Nc3ccc4nc(N)sc4c3)c(C#N)cnc2cc1OCCCN1CC(C)NC(C)C1` (configuration not stated), the IC50 in assay [1] is 89.1 µM; in assay [2] it was 0.0366 µM.
For `Cc1cc2c(Nc3ccc4nc(N)sc4c3)c(C#N)cnc2cc1OCCCN1CCNCC1`, the values for the IC50 in assay [1] and in assay [2] were 17.3 µM and 0.129 µM, respectively.
In the case of `Cc1cc2c(Nc3ccc4nc(N)sc4c3)c(C#N)cnc2cc1OCCCN1CCC(C)CC1`, the results for the 50% inhibitory concentration (IC50) in assay [1] and in assay [2] were 12.7 µM and 0.0534 µM, respectively.
Take `Cc1cc2c(Nc3ccc4nc(N)sc4c3)c(C#N)cnc2cc1OCCN1CCCCC1`: the viability at 10 µM in the assay on A549 came to 55.4%; in the assay on AGS, 61%; in the assay with HepG2 it was 55.4%; with HT-29, 42.7%; in the assay with PC-3 it was 77.7%. The IC50 in assay [1] was 26.7 µM; in assay [2], 0.0348 µM.
